Assay results taken from PMC10914731, “Homo-BacPROTAC-induced degradation of ClpC1 as a strategy against drug-resistant mycobacteria” (Nature Communications, 2024).
“And” between values parts separate entries of the source, which are not always exact repeats. Identical values can stand only once. Like-named read-outs stand apart in the source and are kept apart here. *1 amine or outer side, *2 acyl side, *3 side chain or, on linkers, in order; H or OH if unused. Where a SMILES comes first, the peptide text is derived from it. [ ]: non-standard residue; d: D form. X9 = C=CC(C)(C)n1cc(C[C@@H](C(=O)[*:2])N(C)[*:1])c2ccccc21; Ala(3R-Me,3-isobutenyl) = CC(C)=C[C@@H](C)[C@H](N)C(=O)O; NMeLeu(5-OH,4R) = CN[C@@H](C[C@@H](C)CO)C(=O)O; Phe(βR-OMe) = CO[C@H](c1ccccc1)[C@H](N)C(=O)O; NMeL = CN[C@@H](CC(C)C)C(=O)O

Legend:
[1] = target: ClpC1 NTD protein (M. tuberculosis) (Mycobacterium tuberculosis, UniProt P9WPC9); experiment: biochemical; format: binding
Caco-2 monolayers = experiment: in vitro
Text: (§1) Supplementary Table 1. Structure-Activity Relationships part 1 (SPR, Caco-2) […]
(§2) SPR. Mean values ± standard deviation. Footnotes indicate the number of measurements performed for the respective compound: a) n = […]
(§3) [5] Permeability across Caco-2 monolayers in P(A−B): apical to basolateral and P(B−A): basolateral to apical direction (values reported in 10-
(§4) 6 cm s-1); efflux ratio = P(B−A)/P(A−B); Int. perm: mean value of P(A−B) and P(B−A). […] Influence of Trp-Nα methylation on P(A-B) and efflux
(§5) ratio. Bold: positive influence.

[2] = target: His6-tagged ClpC1-NTD substrate, M. smegmatis ClpC1P1P2 (UniProt A0R574+P9WPC9); experiment: biochemical; format: biochemical; conditions: Msm
[3] = target: ClpC1-NTD substrate, M. tuberculosis ClpC1P1P2 (Mycobacterium tuberculosis, UniProt P9WPC9); experiment: biochemical; format: biochemical; conditions: Mtb
in vitro = conditions: human; for Papp A→B: apical to basolateral; for Papp B→A: basolateral to apical
Text: as §1, §2, §3, §4, §5

[4] = Hepatocyte stability, mice; format: in vitro ADME
Protocol: (§6) Cryopreserved hepatocytes are incubated in an appropriate buffer system containing 50% species serum. Following an acclimation period (15–30 min) in an incubator (37 °C, 5−10% CO2, 85–95% humidity) the test compound is added to the hepatocyte suspension (pH 7.4, typical cell density of about 1 million cells/mL; final concentration of test compound is 1 µM, final DMSO concentration <0.05% v/v). The cells are incubated for up to 6 h and samples are taken at 6 different time points. Samples are then quenched with acetonitrile and pelleted by centrifugation. The remaining amount of parent compound in the supernatants is then analysed by HPLC-MS/MS. Clearance is calculated from compound half-lives using the well-stirred liver model and is converted to clearance stated as % of the liver blood flow (% Qh).

[5] = format: in vitro ADME, Rat
Protocol: as §6

[6] = format: in vitro ADME, Human
Protocol: as §6

[7] = SPR (Supplementary Table 1), read-out: KD ClpC1-NTD Mean ± SD
[8] = SPR, single independent measurements, read-out: KD ClpC1-NTD
[9] = mean value of P(A−B) and P(B−A)
[10] = Measurement 1-6, read-out: DC50, single measurements
[11] = mean of the measurements, read-out: DC50, Mean
[12] = mean of the measurements, read-out: 1-Dmax, Mean

## COC(c1ccccc1)C1NC(=O)C(C)NC(=O)C(CC(C)CO)N(C)C(=O)C(Cc2cn(CCCCn3cc(CC4NC(=O)C(C(C)C)NC(=O)C(CC(C)C)N(C)C(=O)C(C(C)C)NC(=O)C(C(OC)c5ccccc5)NC(=O)C(C)NC(=O)C(CC(C)CO)N(C)C4=O)c4ccccc43)c3ccccc23)NC(=O)C(C(C)C)NC(=O)C(CC(C)C)N(C)C(=O)C(C(C)C)NC1=O (stereo not drawn) [Compound 16]
[1]; [7]
  Kd: 0.0005 ± 0.0002 µM
[1]; [8]
  Kd: 0.000328 µM and 0.000587 µM
Caco-2 monolayers; apical to basolateral
  CACO permeability PEAB: <0.0000014 cm/sec
Caco-2 monolayers; basolateral to apical
  CACO permeability PEBA: <0.0000011 cm/sec
Caco-2 monolayers; [9]
  Caco-2 Int. Perm: 1.3 10-6 cm s-1
[2]; [10]
  DC50: 6.5 µM and 7.6 µM and 7.9 µM and 5.9 µM
[2]; [11]
  DC50: 7 µM
[3]; [11]
  DC50: 10.7 µM

## CO[C@H](c1ccccc1)[C@@H]1NC(=O)[C@H](C)NC(=O)[C@H](C[C@@H](C)CO)N(C)C(=O)[C@H](Cc2cn(C)c3ccccc23)N(C)C(=O)[C@H](Cc2cn(CCOCCOCCn3cc(C[C@@H]4NC(=O)[C@H](CC(C)C)N(C)C(=O)[C@H](C(C)C)NC(=O)[C@H]([C@H](OC)c5ccccc5)NC(=O)[C@H](C)NC(=O)[C@H](C[C@@H](C)CO)N(C)C(=O)[C@H](Cc5cn(C)c6ccccc56)N(C)C4=O)nn3)nn2)NC(=O)[C@H](CC(C)C)N(C)C(=O)[C@H](C(C)C)NC1=O [Compound 21]
[1]; [7]
  Kd: 0.0036 ± 0.0009 µM
[1]; SPR, single independent measurements
  koff ClpC1-NTD: 0.005 s⁻¹
[1]; [8]
  Kd: 0.00419 µM and 0.00293 µM
[1]; SPR, single independent measurements, read-out: koff ClpC1-NTD
  koff: 0.01 s⁻¹
In vitro; Caco-2, CACO permeability PEAB
  Papp A→B: < 0.49 ×10⁻⁶ cm/s
In vitro; Caco-2, CACO permeability PEBA
  Papp B→A: < 0.29 ×10⁻⁶ cm/s
In vitro; Caco-2, Caco-2 permeability P (A-B)
  Papp A→B: < 0.5 ×10⁻⁶ cm/s
In vitro; Caco-2, Caco-2 permeability P (B-A)
  Papp B→A: < 0.3 ×10⁻⁶ cm/s
Caco-2 monolayers; influence of Trp-Nα methylation on P(A-B), matched pair, listed under the methylated partner
  Permeability Correlation P (A-B): 0.3
Caco-2 monolayers; influence of Trp-Nα methylation on efflux ratio, matched pair, listed under the methylated partner
  Permeability Correlation Ratio: 4.33
Caco-2 monolayers; [9]
  Caco-2 Int. Perm: 0.4 10-6 cm s-1
[4]; clearance in hepatocytes
  Hepatocyte Mice: 15 %Qh
[5]; clearance in hepatocytes
  Hepatocyte Rat: 6 %Qh
[2]; Measurement 1-6
  1-Dmax, single measurements: 92.1% and 86.2% and 93.5%
[2]; Measurement 1-6, read-out: 1-Dmax, single measurements
  1-Dmax (percent substrate remaining at maximal degradation): 95.3%
[2]; [10]
  DC50: 4.5 µM and 6.1 µM and 6.8 µM and 4.7 µM
[2]; [12]
  1-Dmax (percent substrate remaining at maximal degradation): 92%
[2]; [11]
  DC50: 5.5 µM
[3]; Measurement 1-4
  1-Dmax, single measurements: 91.1% and 78.4%
[3]; Measurement 1-4, read-out: 1-Dmax, single measurements
  1-Dmax (percent substrate remaining at maximal degradation): 82.9%
[3]; Measurement 1-4, read-out: DC50, single measurements
  DC50: 9.5 µM and 7.3 µM and 9 µM
[3]; [12]
  1-Dmax (percent substrate remaining at maximal degradation): 84%
[3]; [11]
  DC50: 8.6 µM

## C=CC(C)(C)n1cc(C[C@H]2C(=O)N(C)[C@@H](C[C@@H](C)CO)C(=O)N[C@@H](C)C(=O)N[C@@H]([C@H](OC)c3ccccc3)C(=O)N[C@@H](C(C)C)C(=O)N(C)[C@@H](CC(C)C)C(=O)N[C@@H]([C@H](C)C=C(C)C)C(=O)N2C)c2ccccc21 [Compound 23] (cyclo(A[Phe(βR-OMe)]V[NMeL][Ala(3R-Me,3-isobutenyl)][X9][NMeLeu(5-OH,4R)]))
[1]
  koff ClpC1-NTD: 1E-2 1E-1 1/s
[1]; read-out: ClpC1-NTD KD Mean ± SD
  Kd: 0.0121 ± 0.0003 µM
[1]; read-out: KD ClpC1-NTD
  Kd: 0.0119 µM and 0.0123 µM
Caco-2 monolayers; Caco-2
  Caco-2 Efflux ratio: 1.9
  Caco-2 Int. Perm: 5.6 10-6 cm s-1
  Caco-2 permeability P (B-A): 7.3 10-6 cm s-1
  Permeability Correlation P (A-B): 3
  Permeability Correlation Ratio: 1.57
[4]
  Hepatocyte Mice: 15 %Qh
  Hepatocyte Stability Mouse QH: 15.001%
[5]
  Hepatocyte Rat: 57 %Qh
  Hepatocyte Stability Rat QH: 57.093%
[6]
  Hepatocyte Human: 13 %Qh
  Hepatocyte Stability Human QH: 12.924%
